Assays:
Assay type in all cases: cell-based, human
Hay1 [1] = test: Zeocin sensitivity of Hay1 (standard titration curve, selection)
Method: In preparation for the establishment of the frt insert line, the sensitivity of Hay1 to zeocin was tested.
The plasmid pFrt/lac/Zeo (Invitrogen) can be transfected into Hay1 using Lipofectamine 2000. After 48 hrs, resistant cells can be selected by changing to medium containing 75 μg/ml Zeocin (Invitrogen). Non-resistant cells are dead in about seven days. An efficiency of about 1×10^−5/μg is expected. Approximately ten individual transfectants can be selected and tested for expression of lacZ. Copy number of the plasmid can be evaluated via Southern blotting. Transfectants with single insertions can be chosen for further analysis. To examine the behavior of the insert during differentiation, cells can be subjected to EB formation, followed by culture in Med3, 5% defined calf serum for one week. They can be reevaluated for lacZ expression. Since Zeo selection can be maintained, it is expected that all surviving cells will retain lacZ expression. It is a general strategy to maintain selective pressure on the inserts to insure expression of the surrounding DNA, as has been successfully employed in a number of other studies (Zweigerdt et al., (2001) Cytotherapy 5, 399-413; Liu et al. (2004) Stem Cells Dev. 13, 636-645; Schuldiner et al., (2003) Stem Cells 21, 257-265).

Hay1 [2] = test: Growth of Hay1 in defined medium after removal of individual peptide hormone factors; conditions: for effect on growth of removal of the factor from the medium: Hay1, defined feeder free medium, factor removed individually
Method: The use of feeder layers complicates the use of stem cells for a variety of applications. Use of feeder layers dramatically raise the background in standard in vitro toxicology assays, such as MTT or resazurin reductions confounding the results. Hay1 can be grown routinely under defined conditions. Standard medium consists of KO-DMEM, 15% KO-serum replacement, glutamine, nonessential amino acids, β-MeSH, 10 ng/ml oncostatin M, 10 ng/ml SCF and 25 ng/ml bFGF. Using this medium, Hay1 continues to express the markers listed above and doubles approximately every three to four days. This is slightly slower than their doubling on feeder layers.
Growth of Hay1 was examined under various conditions known to affect stem cell growth and differentiation. Mouse and human EG cells require a source of gp130 signaling for growth in culture (Shamblott et al. (1998); Koshimuzu et al. (1996) Development 122, 1235-1242).
(§1) Since Oct 4 controls Nanog expression (Rodda et al. (2005)), it was expected that induction of Oct 4 would also raise nanog, and this is what was observed.

Oct 4 and Nanog = Oct 4 and Nanog expression in Hay1 by real time RT-QPCR
Description: While surface markers and alkaline phosphatase are convenient markers for stem cells, it has become clear that expression of the transcription factors Oct 4 and Nanog are fundamental characteristics of stem cells (Rodda et al. (2005) J. Biol. Chem. 280, 24731-24737; Chambers et al. (2003) Cell 113, 643-655). Hay1 was examined for expression of these factors using real time RT-QPCR. […] Biomol. Screen. 5, 249-254), a medium that is a mixture of Weymouth's MAB, Ham's F12 and William's E. It also contains 5% defined calf serum (Hyclone). Actin was used as a standard.
as §1

ACTHep1-6 = test: Reversal of transformation of ACTHep1-6 by ponasterone A induced dominant negative RAS; conditions: 10 μM ponasterone A in Med3, 5% serum, 10,000 cells per well
Description: Identification of a human hepatocyte cell line starting from human EG cells using sequential expression of an activated and a dominant negative transforming gene can be performed as follows. Human EG cells can be transfected with a construct containing the human hepatitis B virus core promoter/enhancer (SEQ ID NO:1) driving an activated H-RAS gene (SEQ ID NO:2) and also optionally containing an ecdysone inducible gene switch promoter (SEQ ID NO:3) driving a dominant negative H-RAS gene (SEQ ID NO:4) (Sandig et al., (1996) Gene Therapy 3, 1002-1009; Saez et al., (2000) Proc. Natl. Acad. Sci. 97, 14512-14517). The activated H-RAS can be transcribed after differentiation of the EG cells. Transformed hepatocytes can be isolated in soft agar, cloned, expanded and frozen. Cultures can be plated at low density then treated with ponasterone A to induce the dominant negative RAS and reverse transformation. Cells are expected to arrest growth at subconfluent densities. Their identity as hepatocytes can be confirmed by production of albumin, cyp1A and cyp3A.
ACTHep1-6 can be further characterized. Individual vials can be thawed and plated in Med3, 5% serum as described above. Cells can be expanded, then plated at a density of 10,000 cells per well in a 96 well plate. […] Cells are selected having the cuboidal appearance of hepatocytes with a prominent nucleus. […]

[3] = Hay1, FGF replaced after withdrawal

Compound: Cc1c(N)nc([C@H](CC(N)=O)NC[C@H](N)C(N)=O)nc1C(=O)N[C@H](C(=O)N[C@H](C)[C@@H](O)[C@H](C)C(=O)N[C@H](C(=O)NCCC1=N[C@@H](c2nc(C(=O)NCCCCN=C(N)N)cs2)CS1)[C@@H](C)O)[C@@H](O[C@@H]1O[C@@H](CO)[C@@H](O)[C@H](O)[C@@H]1O[C@H]1O[C@H](CO)[C@@H](O)[C@H](OC(N)=O)[C@@H]1O)c1cnc[nH]1 [zeocin]
- effective selection concentration (Hay1 [1]; Hay1, standard titration curve): 75 µg/mL
- time until non-resistant cells are dead (Hay1 [1]; Hay1 transfected with pFrt/lac/Zeo, medium containing 75 μg/ml Zeocin): about seven

Compound: human Stem Cell Factor [SCF]
- effect on growth of removal of the factor from the medium (Hay1 [2]): some effect on growth

Compound: oncostatin M
- effect on growth of removal of the factor from the medium (Hay1 [2]): completely arrested the growth
- effect on growth of removal of the factor from the medium (Hay1 [2]; listed as Onc M): some effect on growth
- alkaline phosphatase status of cultures after removal of the factor (Hay1 [2]; Hay1, defined medium, factor removed): alkaline phosphatase negative within several days

Compound: human basic Fibroblast Growth Factor [FGF]
- Nanog expression after replacement of FGF (Oct 4 and Nanog; [3]): raise nanog
- Oct 4 expression after replacement of FGF (Oct 4 and Nanog; [3]): returned Oct 4 expression to its former level
- Oct 4 and Nanog expression after FGF withdrawal (Oct 4 and Nanog; Hay1, FGF withdrawn): dramatic reduction in expression
- effect on growth of removal of the factor from the medium (Hay1 [2]): slight negative effect on growth
- effect on growth of removal of the factor from the medium (Hay1 [2]; listed as bFGF): some effect on growth
- effect on morphology of removal of the factor (Hay1 [2]; Hay1, defined medium, FGF removed): flatter and more spread out on the dish

Compound: CC(C)CC[C@@H](O)[C@](C)(O)[C@H]1CC[C@@]2(O)C3=CC(=O)[C@@H]4C[C@@H](O)[C@@H](O)C[C@]4(C)[C@H]3CC[C@]12C [ponasterone A]
- growth of cells after addition of ponasterone A (ACTHep1-6): stop growing over the next 24 hours and arrest at subconfluent densities
